Experimental data from patent US8097616B2, “Process for preparation of high-purity meloxicam and meloxicam potassium salt” (Egis Gyogyszergyar Nyilvanosan Mukodo Reszvenytarsasag, priority 2004, dated 2012).

Experiment: solubility in water at the acidification pH
Type: physicochemical
Details: acidified until pH 6

solubility in water: almost insoluble
SMILES: Cc1cnc(NC(=O)C2=C(O)c3ccccc3S(=O)(=O)N2C)s1 [meloxicam, 4-hydroxy-2-methyl-N-(5-methyl-2-thiazolyl)-2H-1,2-benzothiazine-3-carboxamide-1,1-dioxide]
